According to US20070082934A1, “Substituted 4-aryloxy and 4-arylsulfanyl-phenyl-2-aminothiazoles as inhibitors of cell proliferation” (priority 2003, published 2007):
“Also recorded” adds a separate entry of the source. Where two headings read alike, the source gives them in different places.

Assays:
MCF7 cells = assay: Inhibition of breast cell proliferation, SRB assay, 48 hour incubation; assay type: cell-based, human; conditions: for inhibition at 100 µM: Homo sapiens
Description: MCF7 cells were treated with compounds or vehicle (DMSO). […] Percent inhibition of growth at 100 μM was determined and GI50 values were calculated from log-dose response curves as previously described ([…] et al., Cancer Res., 2003, 63:3211-3220).

BT-549 = assay: NCI anti-tumor screen, SRB assay, 48 hour exposure; assay type: cell-based, human; conditions: BT-549 breast cancer cell line
Description: (§1) Compounds were tested at the National Cancer Institute's Developmental Therapeutics Program, in duplicate, against 60 human tumor cell lines at a minimum of five concentrations at 10-fold dilutions: A 48 hour continuous drug exposure protocol was used, and a sulforhodamine B (SRB) protein assay was used to estimate cell viability or growth.
(§2) Upon completion of the synthesis, the thiazole compounds 17-24 and 27-30 were submitted to the NCI's antitumor screen (see Monks et al., J. Natl. Cancer Inst., 1991, 83:757b 766; Bray and Wickstrom, Biotechniques, 1996, 21:5:780-782) and the results against human breast cancer cell lines are shown in Table 2 as GI50 values.

HS 578T = assay: NCI anti-tumor screen, SRB assay, 48 hour exposure; assay type: cell-based, human; conditions: estrogen-negative HS 578T cell line
Description: as §1, §2

MCF7 = assay: NCI anti-tumor screen, SRB assay, 48 hour exposure; assay type: cell-based, human; conditions: MCF7 breast cancer cell line
Description: as §1, §2

MDA-MB-231/ATCC = assay: NCI anti-tumor screen, SRB assay, 48 hour exposure; assay type: cell-based, human; conditions: MDA-MB-231/ATCC breast cancer cell line
Description: as §1, §2

MDA-MB-435 = assay: NCI anti-tumor screen, SRB assay, 48 hour exposure; assay type: cell-based, human; conditions: estrogen-negative cell line MDA-MB-435
Description: as §1, §2

NCI/ADR-RES = assay: NCI anti-tumor screen, SRB assay, 48 hour exposure; assay type: cell-based, human; conditions: adriamycin-resistant cell line
Description: as §1, §2

T-47D = assay: NCI anti-tumor screen, SRB assay, 48 hour exposure; assay type: cell-based, human; conditions: estrogen-positive cell line T-47D
Description: as §1, §2

[1] = tested on: human breast cancer cell lines; assay: NCI anti-tumor screen, breast cancer cell line panel as a whole; assay type: cell-based; conditions: for selectivity among breast cancer cell lines: comparison of GI50 values across cell lines; for growth inhibition of human breast tumor cells, in words: estrogen-positive and negative breast cancer cell lines
Description: as §1, §2

[2] = tested on: 60 human tumor cell lines; assay: NCI anti-tumor screen, all NCI cell lines; assay type: cell-based; conditions: NCI cell lines other than breast (FIG. 3)
Description: FIG. 3 is a graphic representation of a GI50 comparison for compound 17 (4-[4′-(4-Chlorophenoxy)-phenyl]-thiazol-2-yl ammonium iodide) for all NCI cell lines. The ordinate represents growth inhibitor activity and the abscissa indicates the type of tumor as well as each cell line treated with compound 17. L=leukemia; NSCLC Non-small cell lung cancer; C=Colon; CNS=central nervous system; M=Melanoma; O=Ovarian; R=Renal; P=Prostate; B=Breast.
as §1

Compound	inhibition at 100 µM (MCF7 cells)	GI50 (BT-549; Homo sapiens)	GI50 (HS 578T; Homo sapiens)	GI50 (MCF7; Homo sapiens)	GI50 (MDA-MB-231/ATCC; Homo sapiens)	GI50 (MDA-MB-435; Homo sapiens)	GI50 (NCI/ADR-RES; Homo sapiens, NCI/ADR-RES)	GI50 (T-47D; Homo sapiens, T47D)	% Inhibition of MCF7 cells at 100 μM (MCF7 cells)	selectivity among breast cancer cell lines [1]	melting point	also measured
Nc1nc(-c2ccc(Oc3ccccc3)cc2)cs1 [Compound 16, 4-(4′-Phenoxyphenyl)-thiazol-2-yl ammonium iodide]	81%	–	–	–	–	–	–	–	–	–	–	–
I.Nc1nc(-c2ccc(Oc3ccc(Cl)cc3)cc2)cs1 [Compound 17, 4-[4′-(4-Chlorophenoxy)-phenyl]-thiazol-2-yl ammonium iodide]	85%	> 100 µM	> 100 µM	> 100 µM	> 100 µM	> 100 µM	> 100 µM	0.917 µM	–	–	–	GI50 ([1]; Homo sapiens, T47D, all breast cancer cell lines except T-47D, read-out: GI50 in all cell lines except T-47D): > 100 µM; activity against other types of cancer [2]: not effective against other types of cancer
I.Nc1nc(-c2ccc(Oc3cccc(Cl)c3)cc2)cs1 [Compound 18, 4-[4-(3′-Chlorophenoxy)-phenyl]-thiazol-2-yl ammonium iodide]	–	–	–	–	–	–	–	–	100%	active only against estrogen receptor-negative breast cancer	–	GI50 (BT-549): 14.3 µM; GI50 (HS 578T): 19.7 µM; GI50 (MCF7): 14.6 µM; GI50 (MDA-MB-231/ATCC): 4.8 µM; GI50 (MDA-MB-435): 2.1 µM; GI50 (NCI/ADR-RES): 13.2 µM; GI50 (T-47D): 14 µM
I.Nc1nc(-c2ccc(Oc3ccccc3Cl)cc2)cs1 [Compound 19, 4-[4-(2′-Chlorophenoxy)-phenyl]-thiazol-2-yl ammonium iodide]	–	–	–	–	–	–	–	–	87%	–	–	GI50 (BT-549): 12.8 µM; GI50 (MCF7): 27.4 µM; GI50 (MDA-MB-231/ATCC): 10.5 µM; GI50 (MDA-MB-435): 14.8 µM; GI50 (NCI/ADR-RES): 25.8 µM; GI50 (T-47D): 16.4 µM
I.Nc1nc(-c2ccc(Oc3ccc(Cl)c(Cl)c3)cc2)cs1 [Compound 20, 4-[4′-(3,4-Dichlorophenoxy)-phenyl]-thiazol-2-yl ammonium iodide]	47%	1.91 µM	2 µM	3.02 µM	2.29 µM	0.759 µM	1.29 µM	20.9 µM	–	selectivity for the adriamycin-resistant cell line	202 to 205 °C	growth inhibition of human breast tumor cells, in words [1]: low micromolar growth inhibition of most human breast tumor cells; also recorded: low micromolar
COc1ccc(Oc2ccc(-c3csc(N)n3)cc2)cc1.I [Compound 21, 4-[4′-(4-Methoxyphenoxy)-phenyl]-thiazol-2-yl ammonium iodide]	24%	–	–	–	–	–	–	–	–	–	204 to 207 °C	–
Cc1ccc(Oc2ccc(-c3csc(N)n3)cc2)cc1.I [Compound 22, 4-[4′-(p-Toluoxy)phenyl]-thiazol-2-yl ammonium iodide]	98%	–	22.7 µM	17.2 µM	14.1 µM	11.8 µM	18.2 µM	0.54 µM	–	–	118 to 120 °C	–
I.Nc1nc(-c2ccc(Oc3ccc(-c4ccccc4)cc3)cc2)cs1 [Compound 23, 4-[4′-(Biphenyl-4-yloxy)-phenyl]-thiazol-2-yl ammonium iodide]	53%	10.4 µM	18.8 µM	14.3 µM	12.6 µM	18.6 µM	17.4 µM	3.91 µM	–	–	253 to 254 °C	–
I.Nc1nc(-c2ccc(Oc3ccc(Oc4ccccc4)cc3)cc2)cs1 [Compound 24, 4-[4′-(4-Phenoxy-phenoxy)-phenyl]-thiazol-2-yl ammonium iodide]	81%	16.1 µM	27.8 µM	35.1 µM	12.6 µM	22.7 µM	35.9 µM	4.9 µM	–	–	137 to 140 °C	–
CCOC(=O)c1cccc(Oc2ccc(-c3csc(N)n3)cc2)c1.I [Compound 25, 4-[4-(3′-Ethoxycarbonyl-phenoxy)-phenyl]-thiazol-2-yl ammonium iodide]	–	–	–	–	–	–	–	–	84%	–	–	–
I.Nc1nc(-c2ccc(Sc3ccccc3)cc2)cs1 [Compound 26, 4-(4′-Phenylsulfanyl-phenyl)-thiazol-2-yl ammonium iodide]	79%	–	–	–	–	–	–	–	–	–	129 to 132 °C	–
I.Nc1nc(-c2ccc(Sc3ccc(Cl)cc3)cc2)cs1 [Compound 27, 4-[4-(4′-Chloro-phenylsulfanyl)-phenyl]-thiazol-2-yl ammonium iodide]	–	–	–	–	–	–	–	–	89%	active only against estrogen receptor-negative breast cancer	–	GI50 (BT-549): 15.3 µM; GI50 (HS 578T): 18.8 µM; GI50 (MCF7): 21.6 µM; GI50 (MDA-MB-231/ATCC): 12.4 µM; GI50 (MDA-MB-435): 1.49 µM; GI50 (NCI/ADR-RES): 17.5 µM; GI50 (T-47D): 24.4 µM
I.Nc1nc(-c2ccc(Sc3ccc(Cl)c(Cl)c3)cc2)cs1 [Compound 28, 4-[4-(3′,4′-Dichloro-phenylsulfanyl)-phenyl]-thiazol-2-yl ammonium iodide]	–	–	–	–	–	–	–	–	54%	selectivity for the adriamycin-resistant cell line	–	GI50 (BT-549): 5.95 µM; GI50 (MCF7): 5.68 µM; GI50 (MDA-MB-231/ATCC): 3.73 µM; GI50 (MDA-MB-435): 1.11 µM; GI50 (NCI/ADR-RES): 3.37 µM; GI50 (T-47D): 2.79 µM; GI50 ([1]; all breast cancer cell lines except HS 578T, read-out: GI50 values in all cell lines except HS 578T): 1 to 5 µM; growth inhibition of human breast tumor cells, in words [1]: low micromolar growth inhibition of most human breast tumor cells
COc1ccc(Sc2ccc(-c3csc(N)n3)cc2)cc1.I [Compound 29, 4-[4-(4′-Methoxy-phenylsulfanyl)-phenyl]-thiazol-2-yl ammonium iodide]	–	–	–	–	–	–	–	–	11%	–	–	–
Cc1ccc(Sc2ccc(-c3csc(N)n3)cc2)cc1.I [Compound 30, 4-(4′p-Tolylsulfanyl-phenyl)-thiazol-2-yl ammonium iodide]	96%	25.7 µM	59.6 µM	25.9 µM	> 100 µM	1.4 µM	64.6 µM	68 µM	–	active only against estrogen receptor-negative breast cancer	182 to 185 °C	–
